Test results: the supplement of paper PMC6045584
± gives the standard deviation of the averaged measurements.

Experiments:
MLN-4924 = compound: NS(=O)(=O)OC[C@@H]1C[C@@H](n2ccc3c(N[C@H]4CCc5ccccc54)ncnc32)C[C@@H]1O [MLN-4924]; test: surviving fraction relative to DMSO-only wells; higher = less growth inhibition; settings: exposure time: 5 days
In short: (§1)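 Tumour cell lines were seeded in log phase at 250–500 cells per well into 384-well plates. Starting 24 hours later, inhibitors were present continuously for five days at 0.5, 1, 5, 10, 50, 100, 500 and 1000 nM. Surviving fraction, from CellTiter-Glo luminescence, is normalised to the median of DMSO-only wells. Three screens per line were required, with replicate Pearson r >0.7 and median Z' >0.3 for a line to be kept.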

OLAPARIB = compound: O=C(c1cc(Cc2n[nH]c(=O)c3ccccc23)ccc1F)N1CCN(C(=O)C2CC2)CC1 [OLAPARIB]; test: as above; settings: exposure time: 5 days
In short: as §1

Row | Test System | surviving fraction (MLN-4924; 0.5 nM) | surviving fraction (MLN-4924; 1 nM) | surviving fraction (MLN-4924; 5 nM) | surviving fraction (MLN-4924; 10 nM) | surviving fraction (MLN-4924; 50 nM) | surviving fraction (MLN-4924; 100 nM) | surviving fraction (MLN-4924; 500 nM) | surviving fraction (MLN-4924; 1000 nM) | surviving fraction (OLAPARIB; 0.5 nM) | surviving fraction (OLAPARIB; 1 nM) | surviving fraction (OLAPARIB; 5 nM) | surviving fraction (OLAPARIB; 10 nM) | surviving fraction (OLAPARIB; 50 nM) | surviving fraction (OLAPARIB; 100 nM) | surviving fraction (OLAPARIB; 500 nM) | surviving fraction (OLAPARIB; 1000 nM)
1 | HCC1395 BREAST | 1.07 ± 0.042 | 1.13 ± 0.05 | 1.01 ± 0.14 | 1.15 ± 0.14 | 1.1 ± 0.014 | 1.083 ± 0.008 | 0.989 ± 0.1 | 1.01 ± 0.053 | 0.85 ± 0.034 | 0.934 ± 0.12 | 1.06 ± 0.065 | 1.03 ± 0.037 | 0.93 ± 0.11 | 1.02 ± 0.059 | 0.787 ± 0.096 | 0.799 ± 0.17
2 | HCC1806 BREAST | 0.949 ± 0.094 | 1.02 ± 0.089 | 0.907 ± 0.074 | 0.395 ± 0.02 | 0.0957 ± 0.0076 | 0.0527 ± 0.0076 | 0.031 | 0.029 ± 0.0017 | 0.945 ± 0.059 | 1.01 ± 0.063 | 1.05 ± 0.099 | 0.984 ± 0.068 | 0.896 ± 0.12 | 0.74 ± 0.041 | 0.582 ± 0.065 | 0.567 ± 0.066
3 | HCC1954 BREAST | 1.12 ± 0.082 | 1.13 ± 0.045 | 1.09 ± 0.049 | 1.17 ± 0.3 | 0.656 ± 0.075 | 0.518 ± 0.021 | 0.1795 ± 0.0014 | 0.112 ± 0.016 | 0.84 ± 0.13 | 0.762 ± 0.033 | 1.1 ± 0.06 | 0.969 ± 0.038 | 0.916 ± 0.092 | 0.6867 ± 0.0046 | 0.719 ± 0.013 | 0.497 ± 0.0021
4 | HCT15 LARGE INTESTINE | 1.06 ± 0.015 | 1.05 ± 0.095 | 1.07 ± 0.042 | 1.08 ± 0.065 | 0.966 ± 0.11 | 0.906 ± 0.11 | 0.299 ± 0.065 | 0.166 ± 0.041 | 1.09 ± 0.06 | 1.06 ± 0.022 | 1.01 ± 0.085 | 1.05 ± 0.065 | 0.998 ± 0.043 | 1.04 ± 0.018 | 0.999 ± 0.055 | 1.03 ± 0.034
5 | HELA CERVIX | 1.12 ± 0.038 | 1.07 ± 0.06 | 1.1 ± 0.052 | 1 ± 0.022 | 1.16 ± 0.086 | 1.17 ± 0.1 | 0.718 ± 0.055 | 0.611 ± 0.027 | 1.05 ± 0.064 | 1.09 ± 0.025 | 1.05 ± 0.031 | 1.04 ± 0.036 | 1.13 ± 0.03 | 1.18 ± 0.092 | 1.17 ± 0.014 | 1.19 ± 0.019
